Test results reported in article PMC5503785 (Journal of clinical pharmacology, 2017).
Where two headings read alike, the source gives them in different places.

Experiments:
[1] = type: in vivo, human; details: for ω CLR/F (L·h^−1): between-subject variability; for increase in veliparib exposure: covariate model
PARP [2] = details: cited from earlier work
CYP2D6 = details: in vitro study; cited from earlier work
PARP [3] = details: phase 0 study, single dose of veliparib; cited from earlier work
PARP [4] = test system: PARP
[5] = PBPK simulations, cited from earlier work
[6] = cited from earlier work
[7] = fixed in model; fraction renally excreted; cited from earlier work
[8] = bootstrap median, 250 replicates
[9] = analysis by Li et al, one-compartment model
[10] = population PK analysis by Salem et al, one-compartment model
[11] = previously reported, based on NCA

For CC1(c2nc3c(C(N)=O)cccc3[nH]2)CCC(=O)N1 (centres unmarked) [M8], the CLmet [1, 8] was 22.7 L/h, the Qmet [1, 8] was 29.0 L/h and the Vc_met [1, 8] was 23.5 L. It also gave a Vp_met [1, 8] of 51.3 L, a CLmet ([1]; final model estimate) of 22.8 L/h and a Qmet ([1]; final model estimate) of 29.0 L/h. For the same compound, the Vc_met ([1]; final model estimate, metabolite central volume) was 23.6 L, the Vp_met ([1]; final model estimate, metabolite peripheral volume) was 51.4 L and the “potency compared to veliparib (fold less potent)” value (PARP [2]) was “approximately 5 fold”.
For C[C@]1(c2nc3c(C(N)=O)cccc3[nH]2)CCCN1 [veliparib, 2-[(R)-2-methylpyrrolidin-2-yl]-1H-benzimidazole-4-carboxamide], the “share of overall veliparib metabolism accounted for by CYP2D6” value (CYP2D6) is given as ~ 72%, the “inhibition of PAR levels in PBMC” value (PARP [3]) is given as “Significant inhibition” and the “Inhibition of PAR compared with pre-dose baseline” value (PARP [4]; 50/50 mg dose level b.i.d., PBMC) is given as ~ 50%. The “Inhibition of PARP compared with pre-dose baseline” value (PARP [4]; 500/500 mg dose level b.i.d., PBMC) was ~ 70%, the “IC50 for PAR reduction (Emax model, veliparib plasma concentration as driver)” value (PARP [4]; PBMC, estimated with low precision) was 0.03 µg/mL and the “inhibition of PAR levels in PBMCs” value (PARP [4]; dose levels ranging from 50 to 500 mg) was “At least 50%”. For the same compound, the “expected "true" fraction converted to M8” value ([1]; 30% non-renal elimination * 72% CYP2D6 share) was 22%, the “accumulation on chronic dosing” value ([1]; NCA approach, within dose range tested (50 to 500 mg b.i.d.)) was “Negligible accumulation” and the “ω CLR/F (L·h^−1)” value ([1]; bootstrap median) was 34.7%. For the same compound, the “ω CLR/F (L·h^−1)” value ([1]; final model estimate) was 34.7%, the CL/F [1, 8] was 17.3 L/h and the Ka [1, 8] was 2.02 h⁻¹. The “LBM effect on Vc/F, power_LBM” value [1, 8] was 1.21, the Q/F [1, 8] was 17.9 L/h and the Vc/F [1, 8] was 99.1 L. For the same compound, the Vp/F [1, 8] was 47.5 L, the tlag [1, 8] was 0.270 h and the “increase in veliparib exposure” value ([1]; mild renal function impairment (~25% decrease in CLCR)) was ~ 10%. For the same compound, the “increase in veliparib exposure” value ([1]; moderate renal function impairment (~50% decrease in CLCR)) was ~ 20%, the dose proportionality ([1]; dose level from 50 to 500 mg) was “supported” and the Q/F ([1]; final model estimate) was 17.9 L/h. For the same compound, the tlag ([1]; final model estimate) was 0.272 h, the “LBM effect on Vc/F, power_LBM” value ([1]; final model estimate, covariate exponent) was 1.21 and the “Vc/F (central volume of distribution)” value ([1]; final model estimate, typical subject LBM 48 kg) was 99.2 L. The “CL/F (total clearance, CLR/F + CLNR/F)” value ([1]; final model estimate, typical subject LBM 48 kg, CLCR 95 mL/min) was 17.3 L/h, the Ka ([1]; final population PK model estimate, oral veliparib) was 2.02 h⁻¹ and the fm ([1]; fixed in model, fraction metabolized to M8 assumed as 1−frenal) was 0.3 (fix). The Vd/F ([1]; human, plasma, oral, Vd/F (=Vc/F+ Vp/F), final model, standardized to 48 kg LBM and 95 mL/min CLCR) was 147 L, the “contribution of CYP2D6 metabolism to veliparib total clearance” value ([1]; worked out from non-renal fraction and CYP2D6 share) was ~ 22% and the “higher exposure versus extensive metabolizers” value ([5]; CYP2D6 poor metabolizers (PM)) was ~ 20%. The “lower exposure versus extensive metabolizers” value ([5]; CYP2D6 ultra-extensive metabolizers (UM)) was ~ 20%, the CL/F [6, 9] was 13.3 L/h and the Vd/F [6, 9] was 126 L. For the same compound, the CL/F [6, 10] was 20.9 L/h, the Vd/F [6, 10] was 173 L and the CL/F [6, 11] was 18 L/h. The Vd/F [6, 11] was 145 L and the frenal [7] was 0.7 (fix).
